Test system: SYO-1 complex spheroid growth, percent test/control
Experiment: Anticancer human tumor SYO-1 cell line growth inhibition [Asc];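 also: compound exposure lasted 7 days after spheroids grew 3 days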;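 as to viability, T/C: 100% = DMSO vehicle control viability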
Conditions: for IC50: curve of first compound; for viability, T/C: stronger effect = lower value; active = viability on the fitted dose curve at most 10% of control; inactive = the rest
Method: Multicellular complex tumor spheroid response to apoptosis pathway targeting inhibitors Alrizomadlin, Pelcitoclax, and Dasminapant in combination with a variety of drugs and investigational agents in selected tumor cell lines
The MDM2 inhibitor alrizomadlin, the Bcl-2/Bcl-xL inhibitor pelcitoclax, and the IAPs inhibitor dasminapant were evaluated both individually and in combination with standard of care and investigational anticancer small molecules within a complex spheroid model of solid tumors. . Complex spheroids include a stromal component modeled by human endothelial cells (HUVEC) and fibroblasts modeled by human mesenchymal stem cells (MSCs). The concentration ranges selected for each drug and investigational agent were based upon clinically achievable concentrations if the clinical Cmax of the agent was known.
Compounds. The drugs and investigational agents: alrizomadlin (APG-115; NSC831270), pelcitoclax (APG-1252; NSC835773), dasminapant (APG-1387;NSC834197), TAK-243 (NSC785004), copanlisib (NSC809693), olaparib (NSC753686), talazoparib (NSC767125), cobimetinib (NSC 768068), eltanexor (KPT-8602, NSC 794443), abemaciclib (NSC 768073), sotorasib (NSC818433), adagrasib (NSC 831453), MRTX-1133 (NSC 836407), Iadademestat (ORY1001, NSC 806812), and RMC-4630 (NSC839698), were obtained from the NCI Developmental Therapeutics Program Chemical Repository. The FDA-approved anticancer drug set is available from the Developmental Therapeutics Program at https://dtp.cancer.gov/organization/dscb/obtaining/available plates.htm. […] The stock solutions were prepared in dimethyl sulfoxide (DMSO, Sigma-Aldrich, St. Louis, MO, cat. D2650) at 800-fold the tested concentration and stored at -70 degrees C prior to their use. All drugs and investigational agents were tested over a range starting from a high concentration at or near the clinical Cmax and decreasing in half-log increments. If the clinical Cmax for an agent had not been determined, the highest concentration tested was 10 microM.
The patient-derived cancer (PDC) cell lines include five colon adenocarcinomas: 186277-243-T-J2-PDC, 616215-338-R-J1-PDC, 439559-082-T-J2-PDC, 463943-066-T-J2-PDC, and 519858-162-T-J1-PDC; three pancreatic carcinomas: 323965-272-R-J2-PDC, 521955-158-R6-J3-PDC, and 521955-158-R2-J5-PDC; two uterine sarcomas: 327498-152-R-J2-PDC and 993429-296-R-J1-PDC; two rhabdomyosarcomas: 755483-174-R-J1-PDC and 772245-204-R-J1-PDC; two soft tissue sarcomas: 126254-015-R-J1-PDC and 494315-158-R-J1-PDC; two malignant fibrous histiocytomas: 317291-083-R-J1-PDC and 596521-263-R-J1-PDC; two breast carcinomas: 171881-019-R-J1-PDC and 885512-296-R-J2-PDC; and one ovarian carcinoma: 6556581-035-R-J-PDC were obtained from the NCI PDMR, (https://pdmr.cancer.gov). The established cell lines HSSY-2 synovial sarcoma (RRID:CVCL 8719), SYO-1 synovial sarcoma (RRID:CVCL_7146), MPNST malignant peripheral neural sheath tumor were obtained from the Sloan Kettering Institute. The following established cell lines were purchased from the American Type Culture Collection (ATCC, Manassas, VA), Sor the received from the NCI repository:, PANC-1 pancreatic carcinoma (CRL-1469, RRID:CVCL_0480), OVCAR-5 ovarian carcinoma (RRID:CVCL_1628), OVCAR-8 ovarian carcinoma (RRID:CVCL_1629), , MCF-7 breast carcinoma (CRL-12584, RRID:CVCL_0031), MDA-MB-231 breast carcinoma (CRL-12532, RRID:CVCL_0062), NCI-H1876 small cell lung carcinoma (CRL-5902, RRID:CVCL_1503), NCI-H510A small cell lung carcinoma (HTB-184, RRID:CVCL_1565), NCI-H1417 (CRL-5869, RRID:CVCL_1469), and NCI-H196 small cell lung carcinoma (CRL-5823, RRID:CVCL_1509). Dr. Peter Houghton (Greehey Children's Cancer Research Institute, University of Texas Health Science Center, San Antonio, TX) provided Rh-18 rhabdomyosarcoma (RRID:CVCL_1659). Pooled donor human umbilical vein endothelial cells (HUVEC, Lonza, cat. CC-2519) and human mesenchymal stem cells (hMSC, Lonza, cat. PT-2501) were purchased from Lonza (Walkersville, MD).
Cell Culture. […]

[1] = second compound 0.00949 µM, first compound 0.0316 µM
[2] = second compound 0.00949 µM, first compound 0.1 µM
[3] = second compound 0.03 µM, first compound 0.0316 µM
[4] = second compound 0.03 µM, first compound 0.1 µM
[5] = second compound 0.0949 µM, first compound 0.0316 µM
[6] = second compound 0.0949 µM, first compound 0.1 µM
[7] = second compound 0.3 µM, first compound 0.0316 µM
[8] = second compound 0.3 µM, first compound 0.1 µM
[9] = second compound 0.949 µM, first compound 0.0316 µM
[10] = second compound 0.949 µM, first compound 0.1 µM
[11] = second compound 3 µM, first compound 0.0316 µM
[12] = second compound 3 µM, first compound 0.1 µM

Cn1ncnc1[C@H]1c2n[nH]c(=O)c3cc(F)cc(c23)N[C@@H]1c1ccc(F)cc1 + CCN1C(C(=O)NC23CCC(C(=O)O)(CC2)CC3)C(c2cccc(Cl)c2F)C2(C(=O)Nc3cc(Cl)ccc32)C12CCCCC2
< 0.316 nM: IC50 (second compound 0.3 µM) | IC50 (second compound 0.949 µM) | IC50 (second compound 3 µM)
16.8 nM: IC50 (second compound 0.00949 µM)
active: viability, T/C [2] 7.79% | viability, T/C [3] 6.44% | viability, T/C [4] 4.46% | viability, T/C (second compound 0.0949 µM, first compound 0.01 µM) 7.28% | viability, T/C [5] 6.03% | viability, T/C [6] 3.35% | viability, T/C (second compound 0.3 µM, first compound 0.001 µM) 9.59% | viability, T/C (second compound 0.3 µM, first compound 0.00316 µM) 5.54% | viability, T/C (second compound 0.3 µM, first compound 0.01 µM) 4.13% | viability, T/C [7] 2.99% | viability, T/C [8] 2.63% | viability, T/C (second compound 0.949 µM, first compound 0.000316 µM) 3.8% | viability, T/C (second compound 0.949 µM, first compound 0.001 µM) 2.11% | viability, T/C (second compound 0.949 µM, first compound 0.00316 µM) 2.99% | viability, T/C (second compound 0.949 µM, first compound 0.01 µM) 1.27% | viability, T/C [9] 1.77% | viability, T/C [10] 1.2% | viability, T/C (second compound 3 µM, first compound 0.001 µM) 1.49% | viability, T/C (second compound 3 µM, first compound 0.00316 µM) 2.04% | viability, T/C (second compound 3 µM, first compound 0.01 µM) 1.73% | viability, T/C [11] 1.53% | viability, T/C [12] 1.16%
6.16 nM: IC50 (second compound 0.03 µM)
1.56 nM: IC50 (second compound 0.0949 µM)
inactive: viability, T/C (second compound 0.00949 µM, first compound 0.000316 µM) 112% | viability, T/C (second compound 0.00949 µM, first compound 0.001 µM) 104% | viability, T/C (second compound 0.00949 µM, first compound 0.00316 µM) 96.2% | viability, T/C (second compound 0.00949 µM, first compound 0.01 µM) 78.7% | viability, T/C [1] 14.9% | viability, T/C (second compound 0.03 µM, first compound 0.000316 µM) 104% | viability, T/C (second compound 0.03 µM, first compound 0.001 µM) 98.2% | viability, T/C (second compound 0.03 µM, first compound 0.00316 µM) 87.5% | viability, T/C (second compound 0.03 µM, first compound 0.01 µM) 22.8% | viability, T/C (second compound 0.0949 µM, first compound 0.000316 µM) 90.8% | viability, T/C (second compound 0.0949 µM, first compound 0.001 µM) 66.6% | viability, T/C (second compound 0.0949 µM, first compound 0.00316 µM) 23.7% | viability, T/C (second compound 0.3 µM, first compound 0.000316 µM) 15.8% | viability, T/C (second compound 3 µM, first compound 0.000316 µM) 10.9%

O=C(c1cc(Cc2n[nH]c(=O)c3ccccc23)ccc1F)N1CCN(C(=O)C2CC2)CC1 + CCN1C(C(=O)NC23CCC(C(=O)O)(CC2)CC3)C(c2cccc(Cl)c2F)C2(C(=O)Nc3cc(Cl)ccc32)C12CCCCC2
active: viability, T/C (second compound 0.00949 µM, first compound 10 µM) 4.28% | viability, T/C (second compound 0.03 µM, first compound 3.16 µM) 6.53% | viability, T/C (second compound 0.03 µM, first compound 10 µM) 4.33% | viability, T/C (second compound 0.0949 µM, first compound 3.16 µM) 4.71% | viability, T/C (second compound 0.0949 µM, first compound 10 µM) 3.12% | viability, T/C [8] 9.34% | viability, T/C (second compound 0.3 µM, first compound 0.316 µM) 8.44% | viability, T/C (second compound 0.3 µM, first compound 1 µM) 4.25% | viability, T/C (second compound 0.3 µM, first compound 3.16 µM) 4.23% | viability, T/C (second compound 0.3 µM, first compound 10 µM) 2.9% | viability, T/C [9] 1.89% | viability, T/C [10] 1.57% | viability, T/C (second compound 0.949 µM, first compound 0.316 µM) 3.08% | viability, T/C (second compound 0.949 µM, first compound 1 µM) 2.92% | viability, T/C (second compound 0.949 µM, first compound 3.16 µM) 2.34% | viability, T/C (second compound 0.949 µM, first compound 10 µM) 1.51% | viability, T/C [11] 1.11% | viability, T/C [12] 1.24% | viability, T/C (second compound 3 µM, first compound 0.316 µM) 2.68% | viability, T/C (second compound 3 µM, first compound 1 µM) 1.1% | viability, T/C (second compound 3 µM, first compound 3.16 µM) 1.22% | viability, T/C (second compound 3 µM, first compound 10 µM) 1%
1840 nM: IC50 (second compound 0.00949 µM)
155 nM: IC50 (second compound 0.0949 µM)
1130 nM: IC50 (second compound 0.03 µM)
< 31.6 nM: IC50 (second compound 0.3 µM) | IC50 (second compound 0.949 µM) | IC50 (second compound 3 µM)
inactive: viability, T/C [1] 104% | viability, T/C [2] 93.4% | viability, T/C (second compound 0.00949 µM, first compound 0.316 µM) 99.4% | viability, T/C (second compound 0.00949 µM, first compound 1 µM) 92% | viability, T/C (second compound 0.00949 µM, first compound 3.16 µM) 12.9% | viability, T/C [3] 102% | viability, T/C [4] 89.3% | viability, T/C (second compound 0.03 µM, first compound 0.316 µM) 92.4% | viability, T/C (second compound 0.03 µM, first compound 1 µM) 55.2% | viability, T/C [5] 71.7% | viability, T/C [6] 54.1% | viability, T/C (second compound 0.0949 µM, first compound 0.316 µM) 40.9% | viability, T/C (second compound 0.0949 µM, first compound 1 µM) 12.4% | viability, T/C [7] 9.88%

— PubChem BioAssay AID1963432 (Molecular Pharmacology Branch, DTP, NCI, 2024)
